Laboratory results: patent publication US20180201594A1, “Compound pac-1 or salt thereof and pharmaceutical composition comprising same” (priority 2015, published 2018)
Values after ≈ are worked out from the molar mass of the structure shown.

What was measured:
[1] = In vivo pharmacokinetic comparison in rats
Protocol: Twelve male Wistar rats were randomly divided into ZYS-1 group and PAC-1 group. These rats were fasted for 12 hours before administration, and fed water freely. After ZYS-1 and PAC-1 needle crystal were given at the dose of 60 mg/Kg, 0.5 mL orbital blood was collected at 0, 5, 20, 30, 45, 60, 120, 180, 240, 360, 480, 720 mins, centrifuged at 5000 r/min for 5 min. 200 μL plasma was taken. The plasma was added 3 mL acetone and vortexed for 1 min. After centrifuging at 15000 r/min for 5 min, the supernatant was collected and dried under nitrogen at 37° C., to which 200 μL acetonitrile was added to be reconstituted. After sonication for 10 min, the mixture was vortexed for 1 min, and filtered through 0.45 microporous filter membrane. The filtrate was tested by HPLC, and the plasma concentration at each time point was calculated.

[2] = in vivo; assay type: in vivo; conditions: both sexes, ICR, mouse, in vivo, po
Protocol: (§1) Experimental material: ZYS-1
(§2) Experimental animals and feeding conditions: ICR mice, half male and half female. Body weight 20±2 g, provided by Beijing Weitonglihua Experimental Animal Technology Co., Ltd., SPF grade feeding, certificate: SCXK (Beijing) 2006-0009. Particulate feed for mouse breeding was provided by Beijing Ke'ao Xieli Feed Co., Ltd. Animals were housed in barrier-level (Grade 2) animal lab in Beijing Anzhen Hospital, fluorescent lighting, 12 h light and dark cycle, room temperature 22˜24 ? , humidity 40-47%, air supply 10-12 times/h, Laboratory license number: SYXK (Beijing) 2005-0028. Mice were housed in clear plastic boxes with 5 per cage separated by gender.
(§3) Preparation method of test drug: A white powder of ZYS-1 was placed in a mortar to be finely ground. The drug was accurately weighed before use, which was formulated with 0.5% CMC-Na to reach the desired concentration.
(§4) Animals grouping: After fasting (except for water) for 11 h, according to body weight, animals were randomly divided into groups of 10 with 5 males and 5 females. There were 8 groups in total. […]. One-time intragastric administration was used in the experiment. The negative control group was orally administered an equal volume of 0.5% CMC-Na. The animals started feeding at 3 hours after administration.
(§5) Observed indicators: immediately after administration, the observation of the responses of the animals to drugs (such as: general performance, respiration, activity, with or without convulsions, righting reflex, pain reflex, response to external stimuli and other indicators) was started. After observing and recording the symptom of toxic reaction, the time and duration of toxicity, recovery time, and the time of animal death. After the animal was dead, it was immediately grossly dissected, visually observing each of the main organs (heart, liver, spleen, lung and kidney, stomach) to see if there was congestion, increased volume, hardens, discoloration. The survival animals were observed and recorded day by day whether there was delayed toxicity reaction and delayed death within 7 days, and weigh and feed the animals once every 2 days. After finishing the 7 day's observation, the survival animals were grossly dissected and the situations of the main organs were observed. LD50 was calculated according to the number of animal deaths in each group.

[3] = test system: ICR mice; assay: in vivo; assay type: in vivo
Protocol: as §1, §2, §3, §4, §5

[4] = test system: NF-κB; assay: NF-κB protein expression in HGC-27 cells (immunofluorescence); assay type: cell-based; conditions: n = 6
Protocol: (§6) The sterilized cell transfer membrane was taken and placed into a 24-well plate, which was seeded with 1 mL (1×10^5 cells/mL) cell suspension, and cultured for 24 h. Drug-containing medium was added, The negative control groups and administration groups were set, with the experimental groups intervened for 24-48 h. The plate was washed with PBS, and fixed with 4% paraformaldehyde for 15 min. It was treated with 0.1% TritonX-100, and washed with PBS, blocked with 1:10 diluted normal serum blocking solution for 15 min. The plate was added 1:100 diluted primary antibody, placed at 4° C. overnight. The plate was washed with PBS, to which 1:100 diluted secondary antibodies was added and incubated at room temperature for 30 min. The plate was washed with PBS, to which 1:100 diluted SABC-FITC was added, and re-incubated at room temperature for additional 30 min. The unbound FITC was washed with PBS. We observed and taken pictures under fluorescence microscope, and analyzed the fluorescence intensity by Bioflux Montage software. 6 fields were selected randomly under microscope for each group and the integral optical density value of cells was calculated.

[5] = test system: Caspase-3; assay: Caspase-3 protein expression in HGC-27 cells (immunofluorescence); assay type: cell-based; conditions: n = 6
Protocol: as §6

[6] = test system: VEGF; assay: VEGF protein expression in HGC-27 cells (immunofluorescence); assay type: cell-based; conditions: n = 6
Protocol: as §6

[7] = test system: Murine Lewis lung carcinoma cell line; assay: Spontaneous metastatic cancer in mice (Lewis lung carcinoma); conditions: for Inhibition rate of metastasis loci / Metastasis rate / Number of lung (metastasis loci) / Tumor weight / tumor inhibition rate: intragastric administration
Protocol: The tumors growed to 1000 mm^3 and then were randomly divided into groups for adminstration, the groups were treated after three weeks. A total of 4 groups including ZYS-1 high, medium and low (100, 50, 25 mg/kg/d, intragastric administration) and positive control (gefitinib 100 mg/kg/d, intragastric administration) groups were set. The efficacy of ZYS-1 was evaluated in terms of general survival status (food intake, activity, hair etc.), tumor inhibition rate and metastasis inhibition rate.
The curve of tumor growth was plotted. On the next day after completing the treatment cycle, the animal was weighed. After collecting the blood, the animal was sacrificed. The tumor tissue was stripped, weighed, and the tumor inhibition rate was calculated. Store at −80 ? .
Metastasis rate=Number of mice with metastasis/Total number of mice×100%
Inhibition rate of metastasis loci=(average number of metastasis loci in the control group−average number of metastasis loci in the experimental group)/average number of metastasis loci in the control group×100%

[8] = Solubility comparison of ZYS-1 and PAC-1 needle crystal (HPLC); assay type: physicochemical; conditions: Water, room temperature
[9] = male Wistar rats, 60 mg/Kg, n = 6
[10] = both, ICR, mouse, in vivo, 7 days
[11] = one-time intragastric administration, mice

With `C=CCc1cccc(/C=N/NC(=O)CN2CCN(Cc3ccccc3)CC2)c1O` [ZYS-1, 1-Piperazineacetic acid, 4-(phenylmethyl)-2-[[2-hydroxy-3-(2-propen-1-yl)phenyl]methylene]] the “MRT(0-∞)” value [1, 9] was 420.4914 ± 271.8423 h, the T½ka [1, 9] was 22.9129 ± 6.3243 h and the T½α [1, 9] was 209.5239 ± 129.5666 h. It also gave a V/F [1, 9] of 0.0308 ± 0.0167 L, a ka [1, 9] of 0.0324 ± 0.0098 h⁻¹ and a ke [1, 9] of 0.0048 ± 0.0033 h⁻¹. The lagtime [1, 9] was 4.6861 ± 5.2184 h, the AUC(0-inf) ([1]; male, Wistar, rat, plasma, 60 mg/kg, n = 6) was 724 ± 207 µg·h/mL and the AUC ([1]; male, Wistar, rat, plasma, 60 mg/kg, n = 6, read-out: AUC(0-tn)) was 389 ± 136 µg·h/mL. The Cmax ([1]; male, Wistar, rat, plasma, 60 mg/kg, n = 6, read-out: Cmax) was 2190 ± 127 ng/mL, the MRT ([1]; male, Wistar, rat, plasma, 60 mg/kg, n = 6, read-out: MRT(0-tn)) was 167 ± 51.5 h and the Tmax ([1]; male, Wistar, rat, plasma, 60 mg/kg, n = 6, read-out: Tmax) was 65 ± 9.44 h. For the same molecule, the LD50 at 7 days ([2]; LD50 95% confidence limit) was 1090 to 2290 mg/kg, the LD50 at 7 days ([2]; LD50 dose) was 1670 mg/kg and the 0% mortality dose [3, 10] was 343 mg/kg. For the same molecule, the “non-significant toxic reaction dose” value [3, 10] was 343 mg/kg, the “neurotoxicity, ZYS-1 compared with PAC-1” value ([3]; both, ICR, mouse, in vivo, po, 7 days) was “Comparing the experimental results of acute toxicity of ZYS-1 and PAC-1, it can be seen that ZYS-1 has lower neurotoxicity” and the “time for most survival animals to return to normal after administration” value [3, 11] was no more than 12 h. The “time of death after administration (mainly)” value [3, 11] was no more than 6 h, the “NF-κB protein expression (integral optical density value)” value ([4]; 4 μM) was 43.83 ± 1.06 and the “NF-κB protein expression (integral optical density value)” value ([4]; 8 μM) was 40.94 ± 0.46. For the same molecule, the “Caspase-3 protein expression (integral optical density value)” value ([5]; 4 μM) was 37.26 ± 0.39, the “Caspase-3 protein expression (integral optical density value)” value ([5]; 8 μM) was 39.36 ± 1.20 and the “VEGF protein expression (integral optical density value)” value ([6]; 4 μM) was 31.17 ± 0.24. The “VEGF protein expression (integral optical density value)” value ([6]; 8 μM) was 30.51 ± 0.32, the “Inhibition rate of metastasis loci” value ([7]; 25 mg/kg/d) was 54.68% and the Metastasis rate ([7]; 25 mg/kg/d) was 100%. The “Number of lung (metastasis loci)” value ([7]; 25 mg/kg/d) was 6.3 ± 3.3, the Tumor weight ([7]; 25 mg/kg/d) was 1.9579 ± 0.8346 g and the tumor inhibition rate ([7]; 25 mg/kg/d) was 50.63%. For the same molecule, the “Inhibition rate of metastasis loci” value ([7]; 50 mg/kg/d) was 61.15%, the Metastasis rate ([7]; 50 mg/kg/d) was 100% and the “Number of lung (metastasis loci)” value ([7]; 50 mg/kg/d) was 5.4 ± 2.6. It also gave a Tumor weight ([7]; 50 mg/kg/d) of 1.5844 ± 0.8288 g, a tumor inhibition rate ([7]; 50 mg/kg/d) of 60.05% and a Metastasis rate ([7]; 100 mg/kg/d) of 100%. The “Number of lung (metastasis loci)” value ([7]; 100 mg/kg/d) was 3.8 ± 1.9, the Tumor weight ([7]; 100 mg/kg/d) was 1.0209 ± 0.7332 g and the tumor inhibition rate ([7]; 100 mg/kg/d) was 74.26%. For the same molecule, the “Hair Condition” value ([7]; high and medium dose (100, 50 mg/kg/d), tumor-bearing mice) was “shiny coat” and the Solubility [8] was 5.6 µg/mL (≈ 14.3 µM).
